For series [1], the system named is Staphylococcus aureus ATCC 25923. More on the design: method as in ref [3] (a number printed in a supplementary file, which may have a reference list of its own: not looked up in the article's list). Particulars: versus ampicillin; supplement ref [3]; cited from earlier work.
Series [2] in a line: Biomimetic IAM chromatography (log kw, IAM). Particulars: IAM.PC.DD2 column, buffered acetonitrile, pH 7.4, 25 °C, extrapolated to buffer. The class given is physicochemical. How it is done: High performance liquid chromatography (HPLC) measurements were performed on a Shimadzu Vp liquid chromatographic system (Shimadzu, Izabelin, Poland). This instrument was equipped with LC 10AT pump, SPD 10A ultraviolet-visible detector, SCL 10A system controller, CTO-10 AS chromatographic oven, and a Rheodyne injector valve with a 20 μL loop. As the stationary phase Regis IAM.PC.DD2 column, 100 × 4.6 mm i.d., 10 μm (Morton Grove, IL, USA) was applied.
Buffered acetonitrile mixtures were used as effluents. Acetonitrile concentration, expressed as a volume fraction, was varied within a range from 0.2 to 0.5, with a constant step of 0.1. The buffer was prepared from 0.01 mol L^−1 solutions of Na2HPO4 and citric acid, and a pH value of 7.4 was fixed before mixing with an organic modifier. The flow rate was 1.3 mL min^−1. Each compound sample was dissolved in acetonitrile to obtain a concentration of 0.005 mg mL^−1, and each solute peak was detected under ultraviolet light at a wavelength of λmax = 254 nm. Each measurement was performed at a constant temperature (25 °C) at least three times. The dead time values were measured from sodium chloride peaks.
From among 126 heterocyclic compounds evaluated in this work (Table 1), 89 structures have been investigated previously on the IAM column: these are molecules from groups III, IV, V, VI, VII, VIII, IX, XI, XIII, and XV [21, 22, 23]. The remaining ones, i.e., 37 compounds from groups I, II, X, XII and XIV, were tested in this study for the first time using the biomimetic IAM chromatographic technique. To calculate the log kw values (i.e., the logarithms of retention parameter in the buffer as the mobile phase), the retention parameters, logs k (k = (tr − t0)/t0; where tr is the solute retention time, and t0 is a dead time), that were measured for all tested compounds, were used according to Soczewiński-Wachtmeister’s equation (Equation (5)): (5) log k=logtr−t0/t0=log kw−sφ where φ denotes the volume fraction of acetonitrile as organic modifier in the mobile phase, and kw means the retention parameter corresponding to buffer as the mobile phase. The log kw values were evaluated as linear regression coefficients (Table 2).

The test system of the next series is bacteria. More on the design: method as in ref [3] (a number printed in a supplementary file, which may have a reference list of its own: not looked up in the article's list). To be noted: supplement ref [3], cited from earlier work.
Another series deals with Pseudomonas aeruginosa. More on the design: method as in ref [3] (a number printed in a supplementary file, which may have a reference list of its own: not looked up in the article's list). To be noted: versus chloramphenicol and ampicillin; supplement ref [3]; cited from earlier work.
The subject of series [3] is zebrafish embryos and larvae. Set-up: method as in ref [18,20] (a number printed in a supplementary file, which may have a reference list of its own: not looked up in the article's list). Particulars: versus anticancer agent pemetrexed; supplement ref [18,20]; cited from earlier work.
For series [4] the following is noted: IAM column, cited from earlier work.
The subject of series [5] is human cancer cells. Set-up: method as in ref [3,9,10,13,18-21] (a number printed in a supplementary file, which may have a reference list of its own: not looked up in the article's list). Particulars: supplement ref [3,9,10,13,18-21]; cited from earlier work.
Details of series [6]: method as in ref [19] (a number printed in a supplementary file, which may have a reference list of its own: not looked up in the article's list). Particulars: supplement ref [19]; cited from earlier work.
On the set-up of series [7]: method as in ref [22] (a number printed in a supplementary file, which may have a reference list of its own: not looked up in the article's list). To be noted: supplement ref [22]; cited from earlier work.
Series [8] deals with hepatic adenosine A2A receptors. More on the design: method as in ref [22] (a number printed in a supplementary file, which may have a reference list of its own: not looked up in the article's list). Particulars: antagonizes stimulatory effect of a selective A2A receptor agonist; supplement ref [22]; cited from earlier work.
On the set-up of series [9]: method as in ref [8,16] (a number printed in a supplementary file, which may have a reference list of its own: not looked up in the article's list). Particulars: supplement ref [8,16]; cited from earlier work.
Details of series [10]: method as in ref [21,22] (a number printed in a supplementary file, which may have a reference list of its own: not looked up in the article's list). To be noted: supplement ref [21,22]; cited from earlier work.
The test system of series [11] is central nervous system of mice. Set-up: method as in PMID 24157086. To be noted: preliminary tests, ref [21]; cited from earlier work.
Details of series [12]: method as in ref [14] (a number printed in a supplementary file, which may have a reference list of its own: not looked up in the article's list). Particulars: supplement ref [14]; cited from earlier work.
The subject of series [13] is oxidatively-stressed erythrocytes. To be noted: supplement ref [4,19,26,30]; cited from earlier work.
In series [14] the test system is human cancer cells. More on the design: method as in ref [3-7,9-15,17-21] (a number printed in a supplementary file, which may have a reference list of its own: not looked up in the article's list). Particulars: supplement ref [3-7,9-15,17-21]; cited from earlier work.

Where two headings read alike, the source gives them in different places.

Turning to `Cc1ccc(N2CCn3c(COc4ccc(Cl)cc4C)nnc32)cc1` [Compound 9], the “antibacterial activity against Staphylococcus aureus ATCC 25923” value in series [1] is “comparable”. Moreover, the “log kw, IAM” value in [2] is 1.95. The antibacterial activity result in the series with bacteria is “antibacterial”.
For the compound `Clc1ccc(OCc2nnc3n2CCN3c2ccc(Cl)c(Cl)c2)c(Cl)c1` [Compound 13], in the series with Pseudomonas aeruginosa, the “antibacterial potency against Pseudomonas aeruginosa ATCC 25923” value is on record as “superior”. Further, the “log kw, IAM” value in [2] is 2.91. The “selectivity of antibacterial activity” value with bacteria (Gram-negative strains) is reported as “selective activity on Gram-negative strains of bacteria”. The antibacterial activity entry in the series with bacteria is “antibacterial”.
`O=c1c(C(F)(F)F)nnc2n1CCN2c1ccccc1` [Compound 15]: in [3], the “toxicity for zebrafish embryos and larvae compared with pemetrexed” value is listed as “lower”. For the same compound, the “log kw, IAM” value in series [4] (ref [22]) was 0.94.
In the case of `Cc1ccccc1N1CCn2c1nnc(C(F)(F)F)c2=O` [Compound 16], the “mechanism of antiproliferative action: promoting apoptotic caspases” value with human cancer cells [5] is listed as “promoting apoptotic caspases”. In addition, in [3], the “toxicity for zebrafish embryos and larvae compared with pemetrexed” value was “lower”. Further, in [4] (ref [22]), the “log kw, IAM” value is 0.76.
As for `CCc1nnc2n(c1=O)CCN2c1ccc(Cl)c(Cl)c1` [Compound 28], the antiviral activity entry in series [6] was “antiviral”. In addition, in [4] (ref [23]), the “log kw, IAM” value is 1.85.
Consider `COc1ccc(N2CCn3c2nnc(C(=O)NN)c3=O)cc1` [Compound 53], for which the “scavenging of the superoxide anion radical” value in series [7] is reported as “able to scavenge”. Also, the “action towards hepatic adenosine A2A receptors” value in series [8] was “antagonistic”. In addition, the analgesic activity result in series [9] is listed as “analgesic”. The “log kw, IAM” value in [4] (ref [21]) is recorded as −0.10. The antiradical activity entry in series [10] is “antiradical”.
For the compound `NNC(=O)c1nnc2n(c1=O)CCN2c1ccc(Cl)c(Cl)c1` [Compound 55], the “log kw, IAM” value in series [4] (ref [21]) is given as 0.69. Also, the antiradical activity entry in series [10] is recorded as “antiradical”.
Take `COc1ccc(N2CCn3c2nnc(CC(=O)NN)c3=O)cc1` [Compound 58]: in series [2], the “log kw, IAM” value is on record as −0.27. Also, in [10], the antiradical activity result is given as “antiradical”.
Turning to `Cc1cccc(N2CCn3c2nnc(-c2ccccc2)c3=O)c1` [Compound 83], in series [11], the analgesic activity entry is on record as “analgesic activity” and the toxicity entry is recorded as “low toxicity”. For the same compound, the antimetastatic activity entry in [12] is “antimetastatic”. For the same compound, the antihemolytic activity result in [13] was “antihemolytic”. The analgesic activity entry in series [9] is “analgesic”. In addition, the “log kw, IAM” value in series [4] (ref [23]) is listed as 2.26.
With `COc1ccc(N2CCn3c2nnc(-c2ccccc2)c3=O)cc1` [Compound 86], the antimetastatic activity entry in series [12] is “antimetastatic”. In the series on human cancer cells [14], the antitumor activity entry is given as “antitumor”. Further, the “log kw, IAM” value in [4] (ref [23]) is 1.71.
Consider `O=c1c(-c2ccccc2)nnc2n1CCN2c1ccccc1Cl` [Compound 89], for which, in series [11], the analgesic activity result was “analgesic activity” and the toxicity entry is listed as “low toxicity”. In series [13], the antihemolytic activity entry is on record as “antihemolytic”. Moreover, in [9], the analgesic activity result is reported as “analgesic”. The “log kw, IAM” value in [4] (ref [23]) was 1.73.
For `O=c1c(-c2ccccc2)nnc2n1CCN2c1ccc(Cl)c(Cl)c1` [Compound 92], the antihemolytic activity result in series [13] is “antihemolytic”. Further, the analgesic activity entry in series [9] is recorded as “analgesic”. In addition, the “log kw, IAM” value in [4] (ref [23]) is recorded as 3.26.
For `Cc1ccc(N2CCn3c2nnc(Cc2ccccc2Cl)c3=O)cc1` [Compound 109], in series [11], the analgesic activity entry is given as “analgesic activity” and the toxicity result is reported as “low toxicity”. Moreover, in the series with human cancer cells [14], the antitumor activity result was “antitumor”. Also, in series [9], the analgesic activity entry is recorded as “analgesic”. The “log kw, IAM” value in [4] (ref [23]) is 2.65.
As to `CCOc1ccc(N2CCn3c2nnc(Cc2ccccc2Cl)c3=O)cc1` [Compound 114], in series [11], the analgesic activity entry is reported as “analgesic activity” and the toxicity entry is “low toxicity”. In addition, the antitumor activity result with human cancer cells [14] was “antitumor”. Besides, in series [9], the analgesic activity entry is reported as “analgesic”. The “log kw, IAM” value in series [4] (ref [23]) is recorded as 2.51.
Consider `CCOc1ccc(N2CCn3c2nnc(Cc2ccc(Cl)cc2)c3=O)cc1` [Compound 116], for which, in series [11], the analgesic activity result is “analgesic activity” and the toxicity result is listed as “low toxicity”. In the series on human cancer cells [14], the antitumor activity result was “antitumor”. Further, the “log kw, IAM” value in series [4] (ref [23]) is on record as 2.72.

The values are drawn from PMC11154582, “Modeling the Blood-Brain Barrier Permeability of Potential Heterocyclic Drugs via Biomimetic IAM Chromatography Technique Combined with QSAR Methodology” (Molecules, 2024).
